Assay results reported in ChEMBL document CHEMBL4251746, “Design of Conformationally Constrained Acyl Sulfonamide Isosteres: Identification of N-([1,2,4]Triazolo[4,3- a]pyridin-3-yl)methane-sulfonamides as Potent and Selective hNaV1.7 Inhibitors for the Treatment of Pain” (J Med Chem, 2018).
In brackets after ≈: the same amount, converted by molar mass.

Columns and labels:
[1] = octanol/water, pH 7.4
[2] = Dissociation constant, pKa of the compound by UV-metric method; type: physicochemical
[3] = physchem; conditions: 1-octanol/PBS, pH 7.4
[4] = in vivo; conditions: brain/plasma
[5] = physchem; conditions: PBS, pH 7.4
[6] = in vivo; conditions: Sprague-Dawley, rat, iv, 1 mg/kg
[7] = in vivo; conditions: FVB hSCN9a Tg, mouse, po, 30 mg/kg
[8] = in vitro; conditions: dog, MDCK-MDR1
[9] = in vivo; conditions: beagle, dog, iv, 0.5 mg/kg
[10] = in vivo; conditions: FVB hSCN9a Tg, mouse, plasma, po, 30 mg/kg
[11] = in vitro; conditions: dog, MDCK-MDR1; remark: listed apart in the source
[12] = in vivo; conditions: CF1, mouse, iv, 0.5 mg/kg

CS(=O)(=O)NC(=O)c1cc(Cl)c(OCC23CC4CC(CC(C4)C2)C3)cc1F
logD [1]: 2.4
pKa [2]: 3.8

CS(=O)(=O)Nc1noc2cc(COc3ccc(Cl)c(Cl)c3)c(Cl)cc12
logD [3]: 2.5

CS(=O)(=O)Nc1noc2cc(OCc3ccc(Cl)c(Cl)c3)c(Cl)cc12
logD [3]: 1.8

CS(=O)(=O)Nc1noc2cc(COc3ccc(Cl)c(Cl)c3)c(C3CC3)cc12
logD [3]: 2.4

CC(C)c1cn2c(NS(C)(=O)=O)nnc2cc1OCC12CC3CC(CC(C3)C1)C2
logD [3]: 2.9

CS(=O)(=O)Nc1nnc2cc(OCC34CC5CC(CC(C5)C3)C4)c(C3CC3)cn12
Kp [4]: > 0.17
logD [3]: 3.5
solubility kinetic at 24 h, 200 µM [5]: 32 µM (≈ 13.3 µg/mL)
Vd [6]: 0.6 L/kg
Tmax at 3 h [7]: 2 h
Papp A→B at 10 µM [8]: 3.2 ×10⁻⁶ cm/s
Vd [9]: 0.4 L/kg
concentration at 3 h [10]: 46.2 µM
Papp B→A at 10 µM [11]: 3.2 ×10⁻⁶ cm/s

CS(=O)(=O)Nc1nnc2cc(OCC34CC5CC(CC(C5)C3)C4)c(Br)cn12
logD [3]: 2.8

O=S(=O)(Nc1nnc2cc(OCC34CC5CC(CC(C5)C3)C4)c(C3CC3)cn12)C(F)F
logD [3]: 3.1

CS(=O)(=O)Nc1nnc2cc(OCC34CC5CC(CC(C5)C3)C4)c(Cl)cn12
logD [3]: 2.7
pKa [2]: 5.6

CS(=O)(=O)Nc1nnc2cc(COc3cc(Cl)cc(Cl)c3)c(C3CC3)cn12
Kp [4]: < 0.004
logD [3]: 1.9
solubility kinetic at 24 h, 200 µM [5]: 17 µM (≈ 7.26 µg/mL)
Vd [6]: 0.6 L/kg
Papp A→B at 10 µM [8]: 4 ×10⁻⁶ cm/s
concentration at 3 h [10]: 18.8 µM
Papp B→A at 10 µM [11]: 15 ×10⁻⁶ cm/s
Vd [12]: 0.2 L/kg

O=S(=O)(Nc1nnc2cc(OCC34CC5CC(CC(C5)C3)C4)c(C3CC3)cn12)C1CCC1
logD [3]: 4.7

CCc1cn2c(NS(C)(=O)=O)nnc2cc1OCC12CC3CC(CC(C3)C1)C2
logD [3]: 3.1

CS(=O)(=O)Nc1nnc2cc(OCC34CC5CC(CC(C5)C3)C4)c(C3CCC3)cn12
logD [3]: 3.9

CS(=O)(=O)Nc1nnc2cc(OCC3C4CC5CC(C4)CC3C5)c(C3CC3)cn12 (configuration not stated)
logD [3]: 2.3

CS(=O)(=O)Nc1nnc2cc(OCC34CC5CC(CC(C5)C3)C4)ccn12
logD [3]: 2.2

CNS(=O)(=O)Nc1nnc2cc(OCCC34CC5CC(CC(C5)C3)C4)c(C3CC3)cn12
logD [3]: 3.7

CS(=O)(=O)Nc1noc2cc(OCC34CC5CC(CC(C5)C3)C4)c(Cl)cc12
logD [3]: 3.5
pKa [2]: 4.7

CS(=O)(=O)Nc1nnc2cc(COc3ccc(Cl)c(Cl)c3)c(C3CC3)cn12
logD [3]: 1.5

CNS(=O)(=O)Nc1nnc2cc(OCC34CC5CC(CC(C5)C3)C4)c(C3CC3)cn12
logD [3]: 3.2
